In patent US20230079448A1, “DEVICES AND METHODS FOR NEGATIVE PRESSURE THERAPY” (APPLIED TISSUE TECHNOLOGIES LLC, priority 2020, published 2023):

Legend:
common bacteria = conditions: typical value; cited from earlier work
[1] = Activity of gel-based therapeutics after short-term storage; type: physicochemical; conditions: 0.5% (agarose) hydrogel
Text: According to Table 1, gel-therapeutic agent preparations comprising an antibiotic and a 0.5% (agarose) hydrogel may be stable for up to one week. Drugs dissolve passively into the gel and stay stable over time. In some embodiments, the gel-therapeutic agent preparation may further comprise saline. The gel may be biocompatible, meaning that it is structurally similar to the extracellular matrix in tissues. The gel may be flowable, allowing, for example, casting into a mold or injection via needle through a port. The loading of the […] agent preparation in the device may allow consistent and uniform contact with the skin even with patient movement, maintaining continuous delivery of the therapeutic agent to the underlying tissue. The gel-therapeutic agent preparation may prevent loss of the therapeutic agent in the event of a minor leak in the adhesive of the sealing portion of the device.

Molecule	MIC (common bacteria)	Drug activity ([1]; after 3 days storage) [µg/mL]	Drug activity ([1]; after 7 days storage) [µg/mL]
CN[C@H](CC(C)C)C(=O)N[C@H]1C(=O)N[C@@H](CC(N)=O)C(=O)N[C@H]2C(=O)N[C@H]3C(=O)N[C@H](C(=O)N[C@H](C(=O)O)c4cc(O)cc(O)c4-c4cc3ccc4O)[C@H](O)c3ccc(c(Cl)c3)Oc3cc2cc(c3O[C@@H]2O[C@H](CO)[C@@H](O)[C@H](O)[C@H]2O[C@H]2C[C@](C)(N)[C@H](O)[C@H](C)O2)Oc2ccc(cc2Cl)[C@H]1O [vancomycin]	around 2 micrograms per mL or cm^3	–	–
Gentamicin	around 2 micrograms per mL or cm^3	2.41	2.04
